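1) Cells in 96-well plates. 2) Compound, 48 h, 5 concentrations. 3) Linear interpolation between surrounding doses. 4) Unreached endpoint = highest concentration. GI50 marks 50% less growth.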 Calls of active or inactive are those of the source. No stated cut-off is given here; in the data, active = GI50 up to about 1.1 µM and inactive = higher.
Legend:
Experiment in all cases: NCI anticancer screen, dose series, 48 h
A498 = tested on: A498
A549 = tested on: A549
ACHN = tested on: ACHN
CAKI-1 = tested on: CAKI-1
CCRF-CEM = tested on: CCRF-CEM
COLO 205 = tested on: COLO 205
DU-145 = tested on: DU-145
EKVX = tested on: EKVX
HCC 2998 = tested on: HCC 2998
HCT-116 = tested on: HCT-116
HCT-15 = tested on: HCT-15
HL-60 = tested on: HL-60
HOP-62 = tested on: HOP-62
HT-29 = tested on: HT-29
Hs-578T = tested on: Hs-578T
IGROV-1 = tested on: IGROV-1
K562 = tested on: K562
KM12 = tested on: KM12
LOX IMVI = tested on: LOX IMVI
M14 = tested on: M14
MCF7 = tested on: MCF7
MDA-MB-231 = tested on: MDA-MB-231
MDA-MB-435 = tested on: MDA-MB-435
MDA-N = tested on: MDA-N
MOLT-4 = tested on: MOLT-4
Malme-3M = tested on: Malme-3M
NCI-H226 = tested on: NCI-H226
NCI-H23 = tested on: NCI-H23
NCI-H460 = tested on: NCI-H460
NCI-H522 = tested on: NCI-H522
NCI/ADR-RES = tested on: NCI/ADR-RES
OVCAR-3 = tested on: OVCAR-3
OVCAR-4 = tested on: OVCAR-4
OVCAR-5 = tested on: OVCAR-5
OVCAR-8 = tested on: OVCAR-8
PC-3 = tested on: PC-3
RPMI-8226 = tested on: RPMI-8226
RXF 393 = tested on: RXF 393
SF-268 = tested on: SF-268
SF-295 = tested on: SF-295
SF-539 = tested on: SF-539
SK-MEL-28 = tested on: SK-MEL-28
SK-MEL-2 = tested on: SK-MEL-2
SK-MEL-5 = tested on: SK-MEL-5
SK-OV-3 = tested on: SK-OV-3
SN12C = tested on: SN12C
SNB-19 = tested on: SNB-19
SNB-75 = tested on: SNB-75
SR = tested on: SR
SW-620 = tested on: SW-620
T47D = tested on: T47D
TK-10 = tested on: TK-10
U-251 = tested on: U-251
UACC-62 = tested on: UACC-62
UO-31 = tested on: UO-31
786-0 = tested on: 786-0
UACC-257 = tested on: UACC-257

For `c1ccc(C(NC2=NCCO2)c2ccccc2)cc1`, the GI50 (A498) was 5.75 µM (inactive), the GI50 (A549) was > 10 µM (inactive) and the GI50 (ACHN) was > 10 µM (inactive). The GI50 (CAKI-1) was > 10 µM (inactive), the GI50 (CCRF-CEM) was > 10 µM (inactive) and the GI50 (COLO 205) was > 10 µM (inactive). The GI50 (DU-145) was > 10 µM (inactive), the GI50 (EKVX) was > 10 µM (inactive) and the GI50 (HCC 2998) was > 10 µM (inactive). For the same compound, the GI50 (HCT-116) was > 10 µM (inactive), the GI50 (HCT-15) was greater than 10 µM and the GI50 (HL-60) was > 10 µM (inactive). For the same compound, the GI50 (HOP-62) was > 10 µM (inactive), the GI50 (HT-29) was > 10 µM (inactive) and the GI50 (Hs-578T) was > 10 µM (inactive). The GI50 (IGROV-1) was > 10 µM (inactive), the GI50 (K562) was > 10 µM (inactive) and the GI50 (KM12) was > 10 µM (inactive). For the same compound, the GI50 (LOX IMVI) was > 10 µM (inactive), the GI50 (M14) was > 10 µM (inactive) and the GI50 (MCF7) was 6 µM (inactive). For the same compound, the GI50 (MDA-MB-231) was > 10 µM (inactive), the GI50 (MDA-MB-435) was > 10 µM (inactive) and the GI50 (MDA-N) was > 10 µM (inactive). For the same compound, the GI50 (MOLT-4) was > 10 µM (inactive), the GI50 (Malme-3M) was > 10 µM (inactive) and the GI50 (NCI-H226) was > 10 µM (inactive). For the same compound, the GI50 (NCI-H23) was > 10 µM (inactive), the GI50 (NCI-H460) was > 10 µM (inactive) and the GI50 (NCI-H522) was > 10 µM (inactive). For the same compound, the GI50 (NCI/ADR-RES) was > 10 µM (inactive), the GI50 (OVCAR-3) was > 10 µM (inactive) and the GI50 (OVCAR-4) was > 10 µM (inactive). The GI50 (OVCAR-5) was > 10 µM (inactive), the GI50 (OVCAR-8) was > 10 µM (inactive) and the GI50 (PC-3) was > 10 µM (inactive). For the same compound, the GI50 (RPMI-8226) was > 10 µM (inactive), the GI50 (RXF 393) was > 10 µM (inactive) and the GI50 (SF-268) was > 10 µM (inactive). The GI50 (SF-295) was 9.33 µM (inactive), the GI50 (SF-539) was > 10 µM (inactive) and the GI50 (SK-MEL-28) was > 10 µM (inactive). The GI50 (SK-MEL-2) was > 10 µM (inactive), the GI50 (SK-MEL-5) was > 10 µM (inactive) and the GI50 (SK-OV-3) was > 10 µM (inactive). For the same compound, the GI50 (SN12C) was > 10 µM (inactive), the GI50 (SNB-19) was > 10 µM (inactive) and the GI50 (SNB-75) was > 10 µM (inactive). The GI50 (SR) was > 10 µM (inactive), the GI50 (SW-620) was > 10 µM (inactive) and the GI50 (T47D) was > 10 µM (inactive). The GI50 (TK-10) was > 10 µM (inactive), the GI50 (U-251) was > 10 µM (inactive) and the GI50 (UACC-62) was > 10 µM (inactive). The GI50 (UO-31) was > 10 µM (inactive).
In the case of `CNC1c2ccccc2C(=O)c2cc3c(cc21)OCCOCCOCCOCCO3` (stereo unspecified), the GI50 (786-0) was > 100 µM (inactive), the GI50 (A549) was > 100 µM (inactive) and the GI50 (ACHN) was > 100 µM (inactive). The GI50 (CCRF-CEM) was 17.1 µM (inactive), the GI50 (COLO 205) was > 100 µM (inactive) and the GI50 (EKVX) was > 100 µM (inactive). The GI50 (HCC 2998) was > 100 µM (inactive), the GI50 (HCT-116) was > 100 µM (inactive) and the GI50 (HCT-15) was 39.9 µM. The GI50 (HL-60) was 27.4 µM (inactive), the GI50 (HOP-62) was > 100 µM (inactive) and the GI50 (HT-29) was 54 µM (inactive). For the same compound, the GI50 (Hs-578T) was > 100 µM (inactive), the GI50 (IGROV-1) was > 100 µM (inactive) and the GI50 (K562) was 45.1 µM (inactive). For the same compound, the GI50 (KM12) was > 100 µM (inactive), the GI50 (M14) was > 100 µM (inactive) and the GI50 (MCF7) was 55.5 µM (inactive). The GI50 (MDA-MB-231) was 82.2 µM (inactive), the GI50 (MDA-MB-435) was > 100 µM (inactive) and the GI50 (MDA-N) was 96.8 µM (inactive). The GI50 (MOLT-4) was 28.1 µM (inactive), the GI50 (NCI-H460) was > 100 µM (inactive) and the GI50 (NCI-H522) was 34.1 µM (inactive). For the same compound, the GI50 (NCI/ADR-RES) was > 100 µM (inactive), the GI50 (OVCAR-4) was > 100 µM (inactive) and the GI50 (OVCAR-5) was > 100 µM (inactive). For the same compound, the GI50 (OVCAR-8) was > 100 µM (inactive), the GI50 (PC-3) was > 100 µM (inactive) and the GI50 (RPMI-8226) was 34.8 µM (inactive). The GI50 (SF-268) was > 100 µM (inactive), the GI50 (SF-295) was > 100 µM (inactive) and the GI50 (SF-539) was > 100 µM (inactive). For the same compound, the GI50 (SK-MEL-28) was > 100 µM (inactive), the GI50 (SK-MEL-5) was > 100 µM (inactive) and the GI50 (SK-OV-3) was > 100 µM (inactive). The GI50 (SN12C) was 99.1 µM (inactive), the GI50 (SNB-19) was > 100 µM (inactive) and the GI50 (SNB-75) was > 100 µM (inactive). The GI50 (SR) was 28.7 µM (inactive), the GI50 (SW-620) was 81.3 µM (inactive) and the GI50 (T47D) was > 100 µM (inactive). The GI50 (TK-10) was > 100 µM (inactive), the GI50 (U-251) was > 100 µM (inactive) and the GI50 (UACC-257) was > 100 µM (inactive). The GI50 (UO-31) was > 100 µM (inactive).
